According to ChEMBL document CHEMBL3885861, “Open TG-GATES”:

Species on record: Rattus norvegicus
Experiment: Open TG-GATES - Regimen: Daily Repeat
Format: toxicity, organism-based, Sprague-Dawley
Design: regimen Daily Repeat, gender Male, age 6 weeks
Conditions: in vivo, po, 0 mg/kg, route gavage, dose level Control; for APTT / Bas / Eos / Fbg / Hb / Ht / Lym / MCH / MCHC / MCV / Mono / Neu / PT / Plat / RBC / Ret / WBC: tissue Blood; for KIDNEY_L / KIDNEY_R / KIDNEY_TOTAL: tissue Kidney; for LIVER: tissue Liver; for A/G / ALP / ALT / AST / BUN / CRE / Ca / Cl / DBIL / GLC / IP / K / LDH / Na / PL / RALB / TBIL / TC / TG / TP / gamma-GTP: tissue Plasma

CC1=C(CC(=O)O)c2cc(F)ccc2/C1=C\c1ccc([S+](C)[O-])cc1 (configuration not stated)
TERMINAL_BW (72 h, time 3 day): 233.7 g
APTT (72 h, time 3 day): 16 s
Bas (72 h, time 3 day): 0%
Eos (72 h, time 3 day): 1%
Fbg (72 h, time 3 day): 298.2 mg/dL
Hb (72 h, time 3 day): 14.3 g/dL
Ht (72 h, time 3 day): 42.9%
Lym (72 h, time 3 day): 79%
MCH (72 h, time 3 day): 21.6 pg
MCHC (72 h, time 3 day): 33.3%
MCV (72 h, time 3 day): 64.9 fL
Mono (72 h, time 3 day): 2.2%
Neu (72 h, time 3 day): 17%
PT (72 h, time 3 day): 13.8 s
Plat (72 h, time 3 day): 126.4 x10_4/uL
RBC (72 h, time 3 day): 662.2 x10_4/ul
Ret (72 h, time 3 day): 7.1%
WBC (72 h, time 3 day): 84.9 x10_2/uL
KIDNEY_L (72 h, time 3 day): 1 g
KIDNEY_R (72 h, time 3 day): 1 g
KIDNEY_TOTAL (72 h, time 3 day): 1.9 g
LIVER (72 h, time 3 day): 11.1 g
A/G (72 h, time 3 day): 0.9
ALP (72 h, time 3 day): 1760.4 IU/L
ALT (72 h, time 3 day): 44 IU/L
AST (72 h, time 3 day): 69.4 IU/L
BUN (72 h, time 3 day): 15 mg/dL
CRE (72 h, time 3 day): 0.2 mg/dL
Ca (72 h, time 3 day): 11.2 mg/dL
Cl (72 h, time 3 day): 105.8 meq/L
DBIL (72 h, time 3 day): 0.014 mg/dL
GLC (72 h, time 3 day): 180.6 mg/dL
IP (72 h, time 3 day): 7.5 mg/dL
K (72 h, time 3 day): 4.2 meq/L
LDH (72 h, time 3 day): 73.8 IU/L
Na (72 h, time 3 day): 142 meq/L
PL (72 h, time 3 day): 160.8 mg/dL
RALB (72 h, time 3 day): 2.7 g/dL
TBIL (72 h, time 3 day): 0.02 mg/dL
TC (72 h, time 3 day): 80.4 mg/dL
TG (72 h, time 3 day): 111.6 mg/dL
TP (72 h, time 3 day): 5.6 g/dL
gamma-GTP (72 h, time 3 day): 1 IU/L
TERMINAL_BW ([…], time 7 day): 270.8 g
TERMINAL_BW ([…], time 14 day): 336.8 g
TERMINAL_BW ([…], time 28 day): 383.5 g
APTT ([…], time 7 day): 16.4 s
Bas ([…], time 7 day): 0.2%
Eos ([…], time 7 day): 1%
Fbg ([…], time 7 day): 306.6 mg/dL
Hb ([…], time 7 day): 14.4 g/dL
Ht ([…], time 7 day): 42.3%
Lym ([…], time 7 day): 81.2%
MCH ([…], time 7 day): 21.3 pg
MCHC ([…], time 7 day): 34.1%
MCV ([…], time 7 day): 62.5 fL
Mono ([…], time 7 day): 2.6%
Neu ([…], time 7 day): 14.4%
PT ([…], time 7 day): 13.6 s
Plat ([…], time 7 day): 131.7 x10_4/uL
RBC ([…], time 7 day): 678.6 x10_4/ul
Ret ([…], time 7 day): 5.9%
WBC ([…], time 7 day): 91.7 x10_2/uL
APTT ([…], time 14 day): 17.6 s
Bas ([…], time 14 day): 0.2%
Eos ([…], time 14 day): 1%
Fbg ([…], time 14 day): 299.8 mg/dL
Hb ([…], time 14 day): 15.1 g/dL
Ht ([…], time 14 day): 44.6%
Lym ([…], time 14 day): 76.8%
MCH ([…], time 14 day): 20.9 pg
MCHC ([…], time 14 day): 33.9%
MCV ([…], time 14 day): 61.5 fL
Mono ([…], time 14 day): 2.4%
Neu ([…], time 14 day): 19.6%
PT ([…], time 14 day): 14.2 s
Plat ([…], time 14 day): 124.3 x10_4/uL
RBC ([…], time 14 day): 725.2 x10_4/ul
Ret ([…], time 14 day): 4.3%
WBC ([…], time 14 day): 92.8 x10_2/uL
APTT ([…], time 28 day): 17.9 s
Bas ([…], time 28 day): 0.2%
Eos ([…], time 28 day): 1.8%
Fbg ([…], time 28 day): 282.6 mg/dL
Hb ([…], time 28 day): 15.2 g/dL
Ht ([…], time 28 day): 46.1%
Lym ([…], time 28 day): 79.2%
MCH ([…], time 28 day): 18.9 pg
MCHC ([…], time 28 day): 32.9%
MCV ([…], time 28 day): 57.4 fL
Mono ([…], time 28 day): 1.8%
Neu ([…], time 28 day): 16.2%
PT ([…], time 28 day): 13.2 s
Plat ([…], time 28 day): 109 x10_4/uL
RBC ([…], time 28 day): 802.4 x10_4/ul
Ret ([…], time 28 day): 2.4%
WBC ([…], time 28 day): 108.9 x10_2/uL
KIDNEY_L ([…], time 7 day): 1.1 g
KIDNEY_R ([…], time 7 day): 1.1 g
KIDNEY_TOTAL ([…], time 7 day): 2.1 g
KIDNEY_L ([…], time 14 day): 1.3 g
KIDNEY_R ([…], time 14 day): 1.3 g
KIDNEY_TOTAL ([…], time 14 day): 2.5 g
KIDNEY_L ([…], time 28 day): 1.3 g
KIDNEY_R ([…], time 28 day): 1.3 g
KIDNEY_TOTAL ([…], time 28 day): 2.6 g
LIVER ([…], time 7 day): 12.7 g
LIVER ([…], time 14 day): 14.8 g
LIVER ([…], time 28 day): 14.9 g
A/G ([…], time 7 day): 0.9
ALP ([…], time 7 day): 1662.6 IU/L
ALT ([…], time 7 day): 45.2 IU/L
AST ([…], time 7 day): 69.8 IU/L
BUN ([…], time 7 day): 16.8 mg/dL
CRE ([…], time 7 day): 0.2 mg/dL
Ca ([…], time 7 day): 10.9 mg/dL
Cl ([…], time 7 day): 104.4 meq/L
DBIL ([…], time 7 day): 0.012 mg/dL
GLC ([…], time 7 day): 183 mg/dL
IP ([…], time 7 day): 7.2 mg/dL
K ([…], time 7 day): 4.2 meq/L
LDH ([…], time 7 day): 108.4 IU/L
Na ([…], time 7 day): 140.4 meq/L
PL ([…], time 7 day): 177 mg/dL
RALB ([…], time 7 day): 2.7 g/dL
TBIL ([…], time 7 day): 0.018 mg/dL
TC ([…], time 7 day): 94.2 mg/dL
TG ([…], time 7 day): 120.4 mg/dL
TP ([…], time 7 day): 5.7 g/dL
gamma-GTP ([…], time 7 day): 0.8 IU/L
A/G ([…], time 14 day): 0.9
ALP ([…], time 14 day): 1218 IU/L
ALT ([…], time 14 day): 38.6 IU/L
AST ([…], time 14 day): 66.8 IU/L
BUN ([…], time 14 day): 17.8 mg/dL
CRE ([…], time 14 day): 0.2 mg/dL
Ca ([…], time 14 day): 11.1 mg/dL
Cl ([…], time 14 day): 105.4 meq/L
DBIL ([…], time 14 day): 0.012 mg/dL
GLC ([…], time 14 day): 180 mg/dL
IP ([…], time 14 day): 6 mg/dL
K ([…], time 14 day): 3.8 meq/L
LDH ([…], time 14 day): 65.6 IU/L
Na ([…], time 14 day): 143.6 meq/L
PL ([…], time 14 day): 163.4 mg/dL
RALB ([…], time 14 day): 2.8 g/dL
TBIL ([…], time 14 day): 0.044 mg/dL
TC ([…], time 14 day): 73.2 mg/dL
TG ([…], time 14 day): 175.4 mg/dL
TP ([…], time 14 day): 5.9 g/dL
gamma-GTP ([…], time 14 day): 1 IU/L
A/G ([…], time 28 day): 0.8
ALP ([…], time 28 day): 1152 IU/L
ALT ([…], time 28 day): 35.8 IU/L
AST ([…], time 28 day): 63.6 IU/L
BUN ([…], time 28 day): 16.8 mg/dL
CRE ([…], time 28 day): 0.3 mg/dL
Ca ([…], time 28 day): 10.3 mg/dL
Cl ([…], time 28 day): 105 meq/L
DBIL ([…], time 28 day): 0.012 mg/dL
GLC ([…], time 28 day): 192.2 mg/dL
IP ([…], time 28 day): 6.5 mg/dL
K ([…], time 28 day): 3.6 meq/L
LDH ([…], time 28 day): 82.8 IU/L
Na ([…], time 28 day): 142 meq/L
PL ([…], time 28 day): 128.8 mg/dL
RALB ([…], time 28 day): 2.7 g/dL
TBIL ([…], time 28 day): 0.074 mg/dL
TC ([…], time 28 day): 57.4 mg/dL
TG ([…], time 28 day): 125.6 mg/dL
TP ([…], time 28 day): 6 g/dL
gamma-GTP ([…], time 28 day): 1 IU/L
